These results are taken from patent US6630484B1 (priority 1996, dated 2003).

Data set [1] deals with T1, Golgi α-mannosidase II (Homo sapiens, UniProt Q16706).
T1 sequence (Q16706 1-1144): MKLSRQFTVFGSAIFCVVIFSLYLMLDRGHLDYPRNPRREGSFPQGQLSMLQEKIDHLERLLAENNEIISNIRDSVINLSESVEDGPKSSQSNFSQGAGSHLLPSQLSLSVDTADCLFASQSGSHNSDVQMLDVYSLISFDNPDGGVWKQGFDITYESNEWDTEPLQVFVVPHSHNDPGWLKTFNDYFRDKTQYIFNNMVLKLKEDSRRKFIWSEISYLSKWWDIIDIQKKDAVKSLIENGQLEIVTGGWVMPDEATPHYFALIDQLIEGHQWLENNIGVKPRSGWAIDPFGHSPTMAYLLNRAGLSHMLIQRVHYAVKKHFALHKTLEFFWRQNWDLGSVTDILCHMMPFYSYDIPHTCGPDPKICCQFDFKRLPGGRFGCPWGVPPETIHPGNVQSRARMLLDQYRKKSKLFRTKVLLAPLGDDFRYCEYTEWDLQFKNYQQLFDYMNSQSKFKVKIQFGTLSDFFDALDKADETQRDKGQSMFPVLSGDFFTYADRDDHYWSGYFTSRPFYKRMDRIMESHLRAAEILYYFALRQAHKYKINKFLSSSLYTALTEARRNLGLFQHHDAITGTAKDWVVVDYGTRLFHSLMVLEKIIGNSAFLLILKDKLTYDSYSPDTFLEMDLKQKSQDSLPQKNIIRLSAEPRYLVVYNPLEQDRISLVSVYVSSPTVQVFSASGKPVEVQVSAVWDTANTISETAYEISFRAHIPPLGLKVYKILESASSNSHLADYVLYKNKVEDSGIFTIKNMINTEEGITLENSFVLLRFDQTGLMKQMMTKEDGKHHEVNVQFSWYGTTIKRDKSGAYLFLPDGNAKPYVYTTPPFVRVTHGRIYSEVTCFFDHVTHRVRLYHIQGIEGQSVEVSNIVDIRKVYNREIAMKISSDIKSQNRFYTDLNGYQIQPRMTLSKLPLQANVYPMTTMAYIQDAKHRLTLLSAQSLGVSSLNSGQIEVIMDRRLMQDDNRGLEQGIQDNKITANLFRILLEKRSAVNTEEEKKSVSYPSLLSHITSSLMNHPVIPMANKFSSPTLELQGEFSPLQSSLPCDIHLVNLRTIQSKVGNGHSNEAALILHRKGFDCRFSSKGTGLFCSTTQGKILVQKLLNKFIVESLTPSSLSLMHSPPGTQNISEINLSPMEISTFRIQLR
Briefly: Inhibition of the glycoprotein processing Golgi α-mannosidase II. The data set is classed as biochemical.

The conditions of data set [2]: 50 to 550 μg/kg/day continuous i.v. infusion over 5 days, cited from earlier work.
For data set [3] the following is noted: animals; cited from earlier work.
The target in data set [4] is T2, α-mannosidase from jack bean (Canavalia ensiformis, UniProt C0HJB3).
T2 sequence (C0HJB3 1-981): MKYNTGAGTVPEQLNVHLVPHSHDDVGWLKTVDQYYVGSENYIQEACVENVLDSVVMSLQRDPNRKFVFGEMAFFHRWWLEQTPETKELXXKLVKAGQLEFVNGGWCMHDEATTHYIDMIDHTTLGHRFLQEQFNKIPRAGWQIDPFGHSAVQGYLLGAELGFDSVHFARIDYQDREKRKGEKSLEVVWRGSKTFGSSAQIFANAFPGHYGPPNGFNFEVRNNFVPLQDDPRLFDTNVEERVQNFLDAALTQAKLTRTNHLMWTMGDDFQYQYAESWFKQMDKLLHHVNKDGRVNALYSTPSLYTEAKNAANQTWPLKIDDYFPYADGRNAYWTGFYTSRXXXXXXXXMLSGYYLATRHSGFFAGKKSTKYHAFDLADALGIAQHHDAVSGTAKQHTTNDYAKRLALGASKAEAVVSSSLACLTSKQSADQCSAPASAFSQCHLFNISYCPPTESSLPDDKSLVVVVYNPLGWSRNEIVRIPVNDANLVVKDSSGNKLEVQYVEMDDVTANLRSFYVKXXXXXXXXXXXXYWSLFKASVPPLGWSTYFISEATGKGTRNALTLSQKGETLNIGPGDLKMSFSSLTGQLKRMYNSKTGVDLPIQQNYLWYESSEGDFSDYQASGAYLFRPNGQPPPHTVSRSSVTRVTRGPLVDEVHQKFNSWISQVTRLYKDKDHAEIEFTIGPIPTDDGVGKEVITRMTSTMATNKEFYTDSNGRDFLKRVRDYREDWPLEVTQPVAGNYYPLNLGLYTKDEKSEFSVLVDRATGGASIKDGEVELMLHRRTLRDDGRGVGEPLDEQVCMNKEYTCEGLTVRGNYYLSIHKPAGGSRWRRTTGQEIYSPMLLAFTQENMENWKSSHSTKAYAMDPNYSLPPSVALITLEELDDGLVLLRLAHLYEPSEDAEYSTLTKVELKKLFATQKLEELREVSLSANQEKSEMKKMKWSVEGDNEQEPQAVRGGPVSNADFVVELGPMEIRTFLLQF
Briefly: Screen for inhibition of α-mannosidase from jack bean. It is filed as biochemical. As to conditions: for IC50: read-out: Concentration Required for 50% Inhibitions, α-Mannosidase (jack bean).

For data set [5], the target named is T3, lysosomal mannosidase (Homo sapiens, UniProt O00754).
T3 sequence (O00754 50-1011): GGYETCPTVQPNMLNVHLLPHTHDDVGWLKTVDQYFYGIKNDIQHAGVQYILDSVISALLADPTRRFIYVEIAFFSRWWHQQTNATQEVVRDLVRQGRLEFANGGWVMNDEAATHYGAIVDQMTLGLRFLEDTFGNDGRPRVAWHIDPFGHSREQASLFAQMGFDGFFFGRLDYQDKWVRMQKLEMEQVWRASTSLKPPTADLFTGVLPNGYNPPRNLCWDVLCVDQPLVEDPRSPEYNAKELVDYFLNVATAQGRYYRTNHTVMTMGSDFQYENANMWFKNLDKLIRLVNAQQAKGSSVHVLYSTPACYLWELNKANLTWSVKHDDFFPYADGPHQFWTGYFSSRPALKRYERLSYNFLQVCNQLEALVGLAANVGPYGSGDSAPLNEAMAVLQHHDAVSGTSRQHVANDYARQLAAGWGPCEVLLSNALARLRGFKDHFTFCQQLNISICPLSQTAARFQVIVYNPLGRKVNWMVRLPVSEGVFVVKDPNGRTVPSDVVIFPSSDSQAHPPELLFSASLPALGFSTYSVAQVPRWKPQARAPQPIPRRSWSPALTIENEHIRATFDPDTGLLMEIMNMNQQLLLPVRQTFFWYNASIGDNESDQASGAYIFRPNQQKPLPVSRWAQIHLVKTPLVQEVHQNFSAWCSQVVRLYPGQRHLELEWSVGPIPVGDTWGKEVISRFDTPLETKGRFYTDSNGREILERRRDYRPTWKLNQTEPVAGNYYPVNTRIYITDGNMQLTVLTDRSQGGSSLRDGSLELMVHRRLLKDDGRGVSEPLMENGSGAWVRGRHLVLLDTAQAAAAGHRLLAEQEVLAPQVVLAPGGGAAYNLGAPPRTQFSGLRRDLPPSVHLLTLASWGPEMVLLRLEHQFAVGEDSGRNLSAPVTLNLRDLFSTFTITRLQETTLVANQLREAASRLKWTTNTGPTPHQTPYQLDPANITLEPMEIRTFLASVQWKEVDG
Briefly: Selectivity for inhibition of α-mannosidase II vs. lysosomal mannosidase. It is filed as biochemical. The conditions noted are these: for ratio M/L (smaller is better): ratio of activities of α-Mannosidase II/lysosomal mannosidase.

A word on the melting point: it is the temperature of the solid-liquid transition.

“Also recorded” adds a separate entry of the source.

On to `O[C@H]1[C@H]2[C@H](O)CCCN2C[C@H]1O` [Compound 1, swainsonine], for which the “inhibition of α-mannosidase II (in words)” value in data set [1] is reported as “potent inhibitor”. In addition, the “toxicity observed in patients” value in data set [2] (repeated at 28 day intervals) is on record as “Moderate toxicity”. Also, in data set [2] (patients with advanced malignancies), the Serum half-life was 12 h. Also, the preclinical toxicity entry in data set [3] is reported as “low preclinical toxicity”.
Turning to `CC[C@H]1C[C@@H](O)[C@@H]2[C@H](O)[C@H](O)CN2C1` [Compound 24, (1S,2R,6S,8R,8aR)-6-Ethyl-1,2,8-trihydroxyindolizidine], in data set [4], the “α-mannosidase (jack bean) inhibitory activity (in words)” value is recorded as “highest degree of inhibitory activity” and the IC50 was determined as 30 µM. In addition, in data set [5], the “selectivity for inhibition of α-mannosidase II over lysosomal mannosidase (in words)” value (“selectivity for inhibition … (in words)” below) is “increased selectivity” and the “ratio M/L (smaller is better)” value came out at 0.2.
On to `O[C@H]1[C@H]2[C@H](O)C[C@H](CCOCc3ccccc3)CN2C[C@H]1O` [Compound 25, (1S,2R,6S,8R,8aR)-6-[2-(Benzyloxy)ethyl]-1,2,8-trihydroxyindolizidine], for which, in data set [4], the “α-mannosidase (jack bean) inhibitory activity (in words)” value is listed as “slight decrease in inhibitory activity” and the IC50 came to 70 µM. In data set [5], the “selectivity for inhibition … (in words)” value is “increased selectivity” and the “ratio M/L (smaller is better)” value came out at 0.33.
Consider `CC[C@@H]1C[C@@H](O)[C@@H]2[C@H](O)[C@H](O)CN2C1` [Compound 26, (1S,2R,6R,8R,8aR)-6-Ethyl-1,2,8-trihydroxyindolizidine], for which, in data set [4], the “α-mannosidase (jack bean) inhibitory activity (in words)” value was “highest degree of inhibitory activity; also recorded: significant decrease in activity” and the IC50 came out at 230 µM. In data set [5], the “selectivity for inhibition … (in words)” value is given as “increased selectivity” and the “ratio M/L (smaller is better)” value is on record as 0.47.
In the case of `O[C@H]1[C@H]2[C@H](O)C[C@@H](CCOCc3ccccc3)CN2C[C@H]1O` [Compound 27, (1S,2R,6R,8R,8aR)-6-[2-(Benzyloxy)ethyl]-1,2,8-trihydroxyindolizidine], in data set [4], the “α-mannosidase (jack bean) inhibitory activity (in words)” value was “significant decrease in activity” and the IC50 came to 275 µM.
Turning to `CCCC[C@@H]1CCN2C[C@@H](O)[C@@H](O)[C@H]2[C@@H]1O` [Compound 52, (1S,2R,7R,8R,8aR)-7-Butyl-1,2,8-trihydroxyindolizidine], the melting point is 156 °C. In data set [4], the IC50 was more than 1000 µM. For the same compound, in data set [5], the “selectivity for inhibition of α-mannosidase II over lysosomal mannosidase” value was 50 fold, the “selectivity for inhibition … (in words)” value was “increased selectivity” and the “ratio M/L (smaller is better)” value is reported as 0.02.
In the case of `O[C@@H]1[C@H](CCOCc2ccccc2)CCN2C[C@@H](O)[C@@H](O)[C@@H]12` [Compound 53, (1S,2R,7S,8R,8aR)-7-[2-(Benzyloxy)ethyl]-1,2,8-trihydroxyindolizidine], in data set [4], the “α-mannosidase (jack bean) inhibitory activity (in words)” value is listed as “weak inhibitor” and the IC50 was determined as 890 µM.
Turning to `CCCC[C@@H]1CCN2CC3OC(C)(C)O[C@H]3[C@@H]2[C@H]1O` (stereo partly drawn) [Compound 54, (1S,2R,7R,8S,8aS)-7-Butyl-8-hydroxy-1,2-O-isopropylidenedioxyindolizidine], the IC50 in data set [4] was more than 1000 µM.
On to `CC1(C)OC2CN3CC[C@@H](CCOCc4ccccc4)[C@H](O)[C@H]3[C@@H]2O1` (stereo partly drawn) [Compound 55, (1S,2R,7R,8S,8aS)-7-[2-(Benzyloxy)ethyl]-8-hydroyx-1,2-O-isopropylidenedioxyindolizidine], for which, in data set [4], the IC50 is more than 1000 µM.
The same measure, in the same setting: the same measure for `CCCC[C@@H]1CCN2C[C@@H](O)[C@@H](O)[C@@H]2[C@H]1O` [Compound 56, (1S,2R,7R,8S,8aS)-7-Butyl-1,2,8-trihydroxyindolizidine]: more than 1000 µM; for `O[C@H]1[C@H](CCOCc2ccccc2)CCN2C[C@@H](O)[C@@H](O)[C@H]12` [Compound 57, (1S,2R,7S,8S,8aS)-7-[2-(Benzyloxy)ethyl]-1,2,8-trihydroxyindolizidine]: more than 1000 µM; for `CCCC[C@H]1CCN2C[C@@H](O)[C@@H](O)[C@@H]2[C@H]1O` [Compound 77, (1S,2R,7S,8S,8aS)-7-Butyl-1,2,8-trihydroxyindolizidine]: more than 1000 µM.
Take `O[C@H]1[C@@H](CCOCc2ccccc2)CCN2C[C@@H](O)[C@@H](O)[C@H]12` [Compound 78, (1S,2R,7R,8S,8aS)-7-[2-(Benzyloxy)ethyl]-1,2,8-trihydroxyindolizidine]: in data set [4], the IC50 was more than 1000 µM.
